Test results: PubChem BioAssay (NCI)
Several values for one entry are separate records, joined by “and”; a condition that tells them apart may be missing. Equal values may be shown once.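 Where inhibition never reached the appropriate level, the endpoint shown equals the highest concentration tested. Otherwise, values were interpolated linearly from a five-concentration, 48-hour dose response in 96-well plates. Abbreviation: GI50, concentration required for 50% inhibition of growth. At the TGI there is no net growth.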

How the values were obtained:
Test in all cases: growth of human tumour cells (NCI), 48 h; in the data active means GI50 below about 0.43 µM; inactive means the rest
SR leukemia = system: SR leukemia
SK-MEL-5 melanoma = system: SK-MEL-5 melanoma
SK-MEL-28 melanoma = system: SK-MEL-28 melanoma
OVCAR-8 ovarian = system: OVCAR-8 ovarian
SNB-19 CNS = system: SNB-19 CNS
TK-10 renal = system: TK-10 renal
NCI/ADR-RES ovarian = system: NCI/ADR-RES ovarian
MDA-MB-231 breast = system: MDA-MB-231 breast
CAKI-1 renal = system: CAKI-1 renal
MDA-MB-435 = system: MDA-MB-435

NC1CCC2(O)c3ccccc3C2C1 (stereo not given)
> 100 µM: TGI (SR leukemia) | TGI (SK-MEL-5 melanoma) | TGI (SK-MEL-28 melanoma) | TGI (OVCAR-8 ovarian) | TGI (SNB-19 CNS) | TGI (TK-10 renal)

CC[C@]1(c2ccc3c(c2)OCO3)C=[N+]([O-])O[C@H](OC2CCCC2(c2ccccc2)c2ccccc2)[C@@H]1OC(C)=O (stereo not given in full)
3.54 µM: TGI (SK-MEL-5 melanoma)
> 100 µM: TGI (CAKI-1 renal)
4.88 µM: TGI (NCI/ADR-RES ovarian)
4.1 µM: TGI (MDA-MB-435)
11.6 µM: TGI (TK-10 renal)
> 21.7 µM: TGI (SR leukemia) | TGI (MDA-MB-231 breast)
12.7 µM: TGI (SNB-19 CNS)

CCc1c(O)nc(Nc2nc3ccccc3[nH]2)[nH]c1=O
> 100 µM: TGI (SR leukemia) | TGI (SK-MEL-5 melanoma) | TGI (NCI/ADR-RES ovarian) | TGI (SK-MEL-28 melanoma) | TGI (OVCAR-8 ovarian) | TGI (MDA-MB-231 breast) | TGI (SNB-19 CNS) | TGI (TK-10 renal) | TGI (MDA-MB-435)

CC(=O)C1(C(=O)C(=[N+]=[N-])S(=O)(=O)c2ccccc2)CC1
> 100 µM: TGI (SR leukemia) | TGI (SK-MEL-5 melanoma) | TGI (NCI/ADR-RES ovarian) | TGI (SK-MEL-28 melanoma) | TGI (OVCAR-8 ovarian) | TGI (MDA-MB-231 breast) | TGI (SNB-19 CNS) | TGI (TK-10 renal) | TGI (MDA-MB-435)

O=C(Nc1cccc2ccccc12)c1cc2ccccc2oc1=O
85.1 µM: TGI (SNB-19 CNS)
58.1 µM: TGI (MDA-MB-231 breast)
> 100 µM: TGI (SR leukemia) | TGI (SK-MEL-5 melanoma) | TGI (NCI/ADR-RES ovarian) | TGI (SK-MEL-28 melanoma) | TGI (OVCAR-8 ovarian) | TGI (CAKI-1 renal) | TGI (MDA-MB-435)

CN1C(c2ccccc2)CC(O)CC1c1ccccc1 (stereo not given)
> 100 µM: TGI (SR leukemia) | TGI (SK-MEL-5 melanoma) | TGI (SK-MEL-28 melanoma) | TGI (OVCAR-8 ovarian) | TGI (SNB-19 CNS) | TGI (CAKI-1 renal) | TGI (TK-10 renal)

COc1cccc(/C=N/[N-]C(N)=O)c1[O-].[Cu+2].[OH3+]
27.8 µM: TGI (SK-MEL-28 melanoma)
inactive: GI50 (SR leukemia) 5.67 µM | GI50 (OVCAR-8 ovarian) 10.7 µM | GI50 (SNB-19 CNS) 14.9 µM
24.4 µM: TGI (OVCAR-8 ovarian)
8.97 µM and 28.5 µM: TGI (SNB-19 CNS)
43.9 µM: TGI (SR leukemia)

Cc1nc2sccn2c1C(=O)NNC(N)=S
> 100 µM: TGI (SR leukemia) | TGI (SK-MEL-5 melanoma) | TGI (SK-MEL-28 melanoma) | TGI (OVCAR-8 ovarian) | TGI (SNB-19 CNS) | TGI (CAKI-1 renal) | TGI (TK-10 renal)

CCOC(=O)C1C(c2ccc(Br)cc2)N(Cc2ccccc2)C(c2ccc(Br)cc2)C(C(=O)OC)S1(=O)=O (stereo not given)
84.6 µM: TGI (OVCAR-8 ovarian)
> 100 µM: TGI (SR leukemia) | TGI (SK-MEL-28 melanoma) | TGI (SNB-19 CNS) | TGI (CAKI-1 renal) | TGI (TK-10 renal)

O=C1/C(=C\c2cccc(Oc3ccccc3)c2)SC(c2ccccc2)N1c1cc(Cl)ccc1Cl (stereo not given)
> 100 µM: TGI (SK-MEL-5 melanoma) | TGI (NCI/ADR-RES ovarian) | TGI (SK-MEL-28 melanoma) | TGI (MDA-MB-231 breast) | TGI (SNB-19 CNS) | TGI (CAKI-1 renal) | TGI (TK-10 renal) | TGI (MDA-MB-435)
57 µM: TGI (OVCAR-8 ovarian)

COc1c(OC2OC(CO)C(O)C(O)C2O)cc2c(c1OC)-c1ccc(OC)c(=O)cc1C(NC(C)=O)CC2 (stereo not given)
> 100 µM: TGI (SR leukemia) | TGI (SK-MEL-5 melanoma) | TGI (SK-MEL-28 melanoma) | TGI (OVCAR-8 ovarian) | TGI (SNB-19 CNS) | TGI (CAKI-1 renal) | TGI (TK-10 renal)

COc1cc2c(cc1OC)C1=C(C=O)c3ccc(OC)c(OC)c3C(O)N1CC2 (stereo not given)
> 100 µM: TGI (SK-MEL-28 melanoma) | TGI (SNB-19 CNS) | TGI (CAKI-1 renal) | TGI (MDA-MB-435)
72.8 µM: TGI (TK-10 renal)
79.6 µM: TGI (NCI/ADR-RES ovarian)
46.6 µM: TGI (MDA-MB-231 breast)
29.7 µM: TGI (SK-MEL-5 melanoma)

CC1CC(c2ccccc2)=Nc2ccccc2S1 (stereo not given)
> 100 µM: TGI (SR leukemia) | TGI (SK-MEL-5 melanoma) | TGI (SK-MEL-28 melanoma) | TGI (OVCAR-8 ovarian) | TGI (SNB-19 CNS) | TGI (CAKI-1 renal) | TGI (TK-10 renal)

Clc1[nH]nc2ccccc12
> 100 µM: TGI (SK-MEL-5 melanoma) | TGI (NCI/ADR-RES ovarian) | TGI (SK-MEL-28 melanoma) | TGI (OVCAR-8 ovarian) | TGI (MDA-MB-231 breast) | TGI (SNB-19 CNS) | TGI (TK-10 renal) | TGI (MDA-MB-435)

COCOC1CCCC[C@@]1(OCCOCCO[C@@]1(c2ccccc2)CCCC[C@H]1OCOC)c1ccccc1 (stereo not given in full)
> 100 µM: TGI (SR leukemia) | TGI (SK-MEL-28 melanoma) | TGI (OVCAR-8 ovarian) | TGI (SNB-19 CNS) | TGI (CAKI-1 renal) | TGI (TK-10 renal)

CC(C)C(NCc1c2ccccc2[n+](C)c2ccccc12)C(=O)O (stereo not given)
21.3 µM: TGI (TK-10 renal)
12.1 µM: TGI (CAKI-1 renal)
20.8 µM: TGI (SK-MEL-5 melanoma)
15.1 µM: TGI (OVCAR-8 ovarian)
33 µM: TGI (SNB-19 CNS)
26.8 µM: TGI (SK-MEL-28 melanoma)

Nc1c(C(=O)O)c2ccc([N+](=O)[O-])cc2c(=O)n1-c1nc2ccccc2s1
> 100 µM: TGI (SR leukemia) | TGI (SK-MEL-5 melanoma) | TGI (NCI/ADR-RES ovarian) | TGI (SK-MEL-28 melanoma) | TGI (OVCAR-8 ovarian) | TGI (MDA-MB-231 breast) | TGI (SNB-19 CNS) | TGI (CAKI-1 renal) | TGI (MDA-MB-435)

COc1cc2c(cc1O)C(Cc1ccc(OCc3ccccc3)c(OCc3ccccc3)c1)N(C(=O)NCCc1ccccc1)CC2 (stereo not given)
> 100 µM: TGI (SR leukemia) | TGI (SK-MEL-5 melanoma) | TGI (NCI/ADR-RES ovarian) | TGI (OVCAR-8 ovarian) | TGI (MDA-MB-231 breast) | TGI (SNB-19 CNS) | TGI (CAKI-1 renal) | TGI (TK-10 renal) | TGI (MDA-MB-435)

O=C1Nc2noc(=O)nc2NO1
> 200 µM: TGI (SK-MEL-5 melanoma) | TGI (NCI/ADR-RES ovarian) | TGI (SK-MEL-28 melanoma) | TGI (OVCAR-8 ovarian) | TGI (MDA-MB-231 breast) | TGI (SNB-19 CNS) | TGI (CAKI-1 renal) | TGI (TK-10 renal) | TGI (MDA-MB-435)

C/C(CCN(C)C)=N/O
24.3 µM: TGI (SK-MEL-5 melanoma)
22.8 µM: TGI (OVCAR-8 ovarian)
24.2 µM: TGI (CAKI-1 renal)
20.2 µM: TGI (TK-10 renal)
> 100 µM: TGI (SNB-19 CNS)
5.67 µM: TGI (SR leukemia)
14.8 µM: TGI (SK-MEL-28 melanoma)

Cc1nc(C(=Nc2ccc(Br)cc2)Nn2cnnc2)no1
> 100 µM: TGI (SK-MEL-5 melanoma) | TGI (NCI/ADR-RES ovarian) | TGI (SK-MEL-28 melanoma) | TGI (OVCAR-8 ovarian) | TGI (MDA-MB-231 breast) | TGI (SNB-19 CNS) | TGI (CAKI-1 renal) | TGI (MDA-MB-435)

CCOC(=O)CNC(=O)c1[nH]cnc1/N=N/N(C)C
> 100 µM: TGI (SR leukemia) | TGI (SK-MEL-5 melanoma) | TGI (SK-MEL-28 melanoma) | TGI (OVCAR-8 ovarian) | TGI (SNB-19 CNS) | TGI (CAKI-1 renal) | TGI (TK-10 renal)

NCCCNc1nc2ccccc2c2c(=O)c3cc(Cl)ccc3sc12
3.18 µM: TGI (MDA-MB-435)
2.69 µM: TGI (MDA-MB-231 breast)
3.68 µM: TGI (TK-10 renal)
16.2 µM: TGI (SK-MEL-5 melanoma)
2.86 µM: TGI (CAKI-1 renal)
inactive: GI50 (SK-MEL-5 melanoma) 3.71 µM | GI50 (MDA-MB-231 breast) 1340 nM | GI50 (CAKI-1 renal) 1490 nM | GI50 (TK-10 renal) 2180 nM | GI50 (MDA-MB-435) 1750 nM

CC(C)(NO)/C(=N\O)c1ccccc1
> 10 µM: TGI (SR leukemia) | TGI (NCI/ADR-RES ovarian) | TGI (OVCAR-8 ovarian) | TGI (MDA-MB-231 breast) | TGI (SNB-19 CNS) | TGI (CAKI-1 renal) | TGI (TK-10 renal) | TGI (MDA-MB-435)

COc1cccc2c(=O)oc(-c3ccccc3C)nc12
> 100 µM: TGI (SR leukemia) | TGI (NCI/ADR-RES ovarian) | TGI (SK-MEL-28 melanoma) | TGI (OVCAR-8 ovarian) | TGI (MDA-MB-231 breast) | TGI (CAKI-1 renal) | TGI (TK-10 renal) | TGI (MDA-MB-435)
57.7 µM: TGI (SK-MEL-5 melanoma)
